The test system of one data set is vitamin D receptor (VDR). Description: Vitamin D-inducible growth hormone production in transfected COS-1 cells. The data set is classed as cell-based, Green monkey. Conditions: for Total GH Production: averages of duplicate determinations. As to the method:
The biological activity in vitro of chemically synthesized 1α,24(S)-(OH)2D2 and 1α,24(R)-(OH)2D2 was measured using a vitamin D-dependent transcriptional activation model system in which a vitamin D receptor (VDR)-expressing plasmid pSG5-hVDR1/3 and a plasmid p(CT4)^4TKGH containing a Growth Hormone (GH)-gene, under the control of a vitamin D-responsive element (VDRE) were co-transfected into Green monkey kidney, COS-1 cells. DNA's for these two vectors were supplied by Dr. Mark Haussler, Department of Biochemistry, University of Arizona, Tucson, Ariz.
Transfected cells were incubated with vitamin D metabolites and growth hormone production was measured.

For data set [1] the following is noted: cited from earlier work.
The target in a further data set is T1, bovine thymus VDR (Bos taurus, UniProt Q28037).
T1 construct: commercially available reagents of bovine thymus VDR; purchased Incstar (Stillwater, Minn.); host or cells: bovine thymus
T1 sequence (Q28037 1-426): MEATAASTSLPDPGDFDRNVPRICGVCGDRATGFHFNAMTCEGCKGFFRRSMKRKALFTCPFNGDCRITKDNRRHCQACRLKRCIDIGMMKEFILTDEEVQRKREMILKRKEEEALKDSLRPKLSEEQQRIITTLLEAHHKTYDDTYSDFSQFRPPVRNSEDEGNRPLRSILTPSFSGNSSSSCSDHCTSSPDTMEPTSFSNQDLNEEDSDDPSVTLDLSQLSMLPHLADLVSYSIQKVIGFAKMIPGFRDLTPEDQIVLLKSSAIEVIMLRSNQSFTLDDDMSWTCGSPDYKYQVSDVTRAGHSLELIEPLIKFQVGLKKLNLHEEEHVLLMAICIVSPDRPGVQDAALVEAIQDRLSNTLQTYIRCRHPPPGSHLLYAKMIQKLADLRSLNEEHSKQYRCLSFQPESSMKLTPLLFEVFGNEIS
The data set can be described thus: Radioreceptor assay, displacement of 3H-1α,25-(OH)2D3 tracer from bovine thymus VDR. The data set is classed as binding. Conditions: for binding affinity to VDR compared with reference standard (in words): environmentally exposed compounds; for ED50 (amount of material to displace 50% of the bound 3H-1α,25-dihydroxyvitamin D3): environmentally exposed crystalline and powdered material, FIG. 5. As to the method: Purified 1α,24(S)-(OH)2D2 was quantitated by photodiode array spectrophotometry and assayed in the radioreceptor assay.
The purified 1α,24(R)-(OH)2D2 and 1α,24(S)-(OH)2D2 epimers were quantitated by ultraviolet spectroscopy.
The binding affinities of the environmentally exposed compounds, crystalline 1α,24-dihydroxyvitamin D2 and powdered 1α,24-dihydroxyvitamin D2, to the vitamin D receptor (VDR) were assessed using methods known in the art, as described, e.g., in Example 6. […] The percent bound versus amount of compound in pg/tube are graphed in FIG. 5.
Background: Displacement assays read how much labelled ligand stays bound in the presence of the test substance.

Data set [2] can be described thus: Blood metabolite levels in osteoporotic women administered 1α-OH-D2. The data set is classed as in vivo, human. The method, then:
An increase in the production of 1α,24(S)-(OH)2D2 relative to 1α,25-(OH)2D2 has also been observed by the present inventors in human females who received 1α-OH-D2 as part of an investigation of that drug for the treatment of osteoporosis. Following either a single dose of 2 μg of 1α-OH-D2 or daily doses of 8 μg/day for one week, blood was collected and analyzed for the metabolites 1α,24(S)-(OH)2D2 and 1α,25-(OH)2D2. Lipid was extracted from the blood, and the metabolites were purified by HPLC using standard methods and quantified with the radioreceptor assay produced by Incstar (Stillwater, Minn.). One day after a single 2 μg dose, the level of 1α,24(S)-(OH)2D2 was undetectable with the 1α,25-(OH)2D2 level being approximately 11 pg/ml. In contrast, one day following the last dose of 8 μg, the level of 1α,24(S)-(OH)2D2 averaged 9 pg/mL with the 1α,25-(OH)2D2 level averaging 30 pg/mL.

The subject of the next data set is Hep 3B cells. Description: Metabolism of 1α-OH-D2 in Hep 3B cells. The class given is in vitro ADME, human. The following applies: Experiment 2, substrate 1α-OH-D2 10 μM, photodiode array spectrophotometry. As to the method: Substantially pure 1α-(OH)D2 was obtained from Bone Care International, Inc. of Madison, Wis. The 1α-(OH)D2 was cultured for 48 hours with cells derived from a human hepatoma, Hep 3B, in medium devoid of fetal calf serum using known methods in the art.
Lipid extracts of the combined medium and cells were generated by known methods in the art and were subjected to high pressure liquid chromatography (HPLC) on Zorbax-S1L developed with hexane/isopropano/methanol (91:7:2). The putative 1α,24(?)-(OH)2D2 metabolite eluted between the parent 1α-(OH)D2 and standard 1α,25-(OH)2D2 (also obtained from Bone Care International, Inc. of Madison, Wis.). (As used herein, the term “1α,24(?)-(OH)2D2” is meant to indicate that the epimeric form has not been identified.) The 1α,24(?)-(OH)2D2 was further purified by this HPLC system before the metabolite's identification was undertaken using mass spectrometry analysis.
Hep 3B cells were incubated with 1α-OH-D2, as described above, at final concentrations of 1, 10, or 100 nM (Experiment 1), and 1 or 10 μM (Experiment 2) and 1α,24(S)-(OH)2D2 was extracted and purified. The 1α,24(S)-(OH)2D2 and 1α,25-(OH)2D2 metabolites were quantitated by recovered radiolabel (Experiment 1) or by photodiode array spectrophotometry (Experiment 2).

The nature of data set [3]: Plasma metabolites in vitamin D-deficient rats. The data set is classed as in vivo, rat. Conditions: for plasma metabolite after administration: oral or intraperitoneal, vitamin D-deficient rats, HPLC of plasma lipid extracts. As to the method:
Vitamin D2 or 24-OH-D2 was administered (either oral or intraperitoneal supplementation) to vitamin D-deficient rats. Lipid extracts of the plasma were prepared and the metabolites purified by the method of Horst et al. (Horst, R. L., Koszewski, N.J. and Reinhardt, T. A., Biochem., 29:578-82 (1990)) described below for synthesyzing standard biological 1α,24-(OH)2D2.
Standard biological 1α,24-(OH)2D2 was synthesized in vitro from 24-OH-D2 by incubating 10 μg of 24-OH-D2 in flask containing 5 mL of 20% kidney homogenates made from vitamin D-deficient chicks. The product of this reaction was isolated by HPLC and identified by mass spectrometry.

Data set [4] can be described thus: Chemical stability testing, exposure to heat and light. The class given is physicochemical. Conditions: one week; for overall retention of the compound (remained intact): after heat and light; for share of UV absorbing material being 1α,24-dihydroxyvitamin D2 (HPLC): detection at 265 nm; for absorbence at 265 nm retained: specimens exposed to heat and light, reference standard in ethanol in a freezer. As to the method:
Samples of approximately 5 mg of either crystalline or powdered 1α,24-dihydroxyvitamin D2 were each placed in a 5 mL volumetric flask. The flasks were exposed to identical environmental conditions of variations in heat and light. Heat and light are environmental parameters well-known to affect negatively the integrity of vitamin D compounds.
After one week's time, the contents of the flasks were visually inspected. The powdered specimen appeared to be slightly yellow in color compared to the crystalline specimen. Five mL of ethanol was added to each sample and each specimen was dissolved. These solutions were analyzed for ultraviolet absorbence from 200 to 320 nm. A reference standard 1α,24-dihydroxyvitamin D2 dissolved in ethanol at the same concentration and stored in a freezer for the identical time period was similarly analyzed.
The ethanol solutions of the crystalline and powdered 1α,24-dihydroxyvitamin D2 were also analyzed by high performance liquid chromatography (HPLC) under the following conditions: […]

Consider `C=C1CC[C@H](O)C/C1=C/C=C1\CCC[C@]2(C)[C@@H]([C@H](C)CCCC(C)(C)O)CC[C@@H]12` [25-OH-D3, 25-hydroxyvitamin D3, reference compound], for which the “Net vitamin D-inducible GH-production” value with vitamin D receptor (VDR) (inducer 10^−5 M) was 731 ng/mL; in the data set with vitamin D receptor (VDR) (inducer 10^−6 M) it was 1056 ng/mL; with vitamin D receptor (VDR) (inducer 10^−7 M) it was 201 ng/mL. The “Total GH Production” value with vitamin D receptor (VDR) (inducer 10^−5 M) came out at 775 ng/mL; in the data set with vitamin D receptor (VDR) (inducer 10^−6 M) it was 1100 ng/mL; in the data set on vitamin D receptor (VDR) (inducer 10^−7 M), 245 ng/mL.

In the case of `C=C1/C(=C\C=C2/CCC[C@]3(C)[C@@H]([C@H](C)/C=C/[C@](C)(O)C(C)C)CC[C@@H]23)C[C@@H](O)C[C@@H]1O` [1α,24(R)-(OH)2D2, 1α,24(R)-dihydroxyvitamin D2], the “Net vitamin D-inducible GH-production” value in the data set with vitamin D receptor (VDR) (inducer 5 × 10^−8 M) was found to be 1138 ng/mL; in the data set on vitamin D receptor (VDR) (inducer 10^−7 M) it was 1256 ng/mL; in the data set with vitamin D receptor (VDR) (inducer 10^−8 M), 1056 ng/mL; in the data set on vitamin D receptor (VDR) (inducer 10^−9 M), 36 ng/mL. For the same compound, the “Total GH Production” value in the data set on vitamin D receptor (VDR) (inducer 5 × 10^−8 M) stood at 1182 ng/mL; with vitamin D receptor (VDR) (inducer 10^−7 M) it was 1300 ng/mL; in the data set with vitamin D receptor (VDR) (inducer 10^−8 M), 1100 ng/mL; in the data set on vitamin D receptor (VDR) (inducer 10^−9 M), 80 ng/mL.

With `C=C1/C(=C\C=C2/CCC[C@]3(C)[C@@H]([C@H](C)/C=C/[C@H](C)C(C)C)CC[C@@H]23)C[C@@H](O)C[C@@H]1O` [1α-(OH)D2, 1α-hydroxyvitamin D2], the “bone mass in human osteoporotic patients” value in data set [1] (dosages of 2.0 μg/day or higher) is given as “will reverse the loss of bone mass”.

`C=C1/C(=C\C=C2/CCC[C@]3(C)[C@@H]([C@H](C)/C=C/[C@H](C)C(C)(C)O)CC[C@@H]23)C[C@@H](O)C[C@@H]1O` [1α,25-(OH)2D2, 1α,25-dihydroxyvitamin D2, reference compound] showed a half-maximal binding on bovine thymus VDR (radioreceptor assay, Incstar kit) of 80 pg/mL. Moreover, the “blood level of metabolite” value in data set [2] (one day after a single 2 μg dose of 1α-OH-D2) is “approximately 11 pg/ml”. Further, the “blood level of metabolite (average)” value in data set [2] (one day following the last dose of 8 μg/day 1α-OH-D2 for one week) was determined as 0.03 ng/mL. Moreover, the “Rate of Production” value in the data set with Hep 3B cells is reported as 7.4 pmol per 10^6 cells/day.

With `C=C1CC[C@H](O)C/C1=C/C=C1\CCC[C@]2(C)[C@@H]([C@H](C)CCCC(C)C)CC[C@@H]12` [vitamin D3], in data set [3] (comparable rats), the “24-hydroxylated metabolite in plasma after administration” value is on record as “no detectable 24-OH-D3”.

In the case of `C=C1C(=CC=C2CCCC3(C)C2CCC3C(C)C=CC(C)(O)C(C)C)CC(O)CC1O` (stereo not drawn) [powdered 1α,24-dihydroxyvitamin D2, 1α,24-dihydroxyvitamin D2], on bovine thymus VDR, the “binding affinity to VDR compared with reference standard (in words)” value is on record as “considerably less” and the “ED50 (amount of material to displace 50% of the bound 3H-1α,25-dihydroxyvitamin D3)” value is “about 40 pg/tube”. The “binding activity relative to standard 1α,24-dihydroxyvitamin D2” value on bovine thymus VDR (powder form exposed to the same conditions) is listed as “less than 25%”. Also, in data set [4], the “overall retention of the compound (remained intact)” value amounted to 35% and the “share of UV absorbing material being 1α,24-dihydroxyvitamin D2 (HPLC)” value (“share” below) is given as 78%. In addition, in data set [4] (listed as powdered specimen), the “retention of the structure, weight-based normalization of the HPLC peak area” value turned out to be 23% and the “absorbence at 265 nm retained” value came out at 45%.

On to `C=C1C(=CC=C2CCCC3(C)C2CCC3C(C)C=CC(C)(O)C(C)C)CC(O)CC1O` (stereo not drawn) [reference standard, 1α,24-dihydroxyvitamin D2], for which the “ED50 (amount of material to displace 50% of the bound 3H-1α,25-dihydroxyvitamin D3)” value at bovine thymus VDR was “about 10 pg/tube”. In data set [4], the “retention of the structure, weight-based normalization of the HPLC peak area” value was 100%; the “share” value is listed as 96%; the “absorbence at 265 nm retained” value was 100%.

As to `C=C1C(=CC=C2CCCC3(C)C2CCC3C(C)C=CC(C)(O)C(C)C)CC(O)CC1O` (stereo not drawn) [crystalline 1α,24-dihydroxyvitamin D2, 1α,24-dihydroxyvitamin D2], the “binding affinity to VDR compared with reference standard (in words)” value at bovine thymus VDR is listed as “approximately the same as that of a reference standard”. Also, the “ED50 (amount of material to displace 50% of the bound 3H-1α,25-dihydroxyvitamin D3)” value at bovine thymus VDR (listed as crystalline material) is listed as “about 10 pg/tube”. Also, in data set [4], the “overall retention of the compound (remained intact)” value is recorded as “over 88%” and the “share” value is listed as 95%. Moreover, in data set [4] (listed as crystalline specimen), the “retention of the structure, weight-based normalization of the HPLC peak area” value came to 93% and the “absorbence at 265 nm retained” value was found to be 93%.

For the compound `C=C1/C(=C\C=C2/CCC[C@]3(C)[C@@H]([C@H](C)CCCC(C)C)CC[C@@H]23)C[C@@H](O)C[C@@H]1O` [1α-(OH)D3, 1α-hydroxyvitamin D3], the “safely obtainable dosage levels” value in data set [1] (human, in vivo) is “dosage levels of 2.0 μg/day or greater are not safely obtained”.

As to `C=C1CC[C@H](O)C/C1=C/C=C1\CCC[C@]2(C)[C@@H]([C@H](C)/C=C/C(C)(O)C(C)C)CC[C@@H]12` (stereo partly shown) [24-OH-D2, 24-hydroxyvitamin D2], the “plasma metabolite after administration” value in data set [3] is given as “one metabolite isolated co-migrated on HPLC with the standard 1α,24-(OH)2D2”.

With `C=C1CC[C@H](O)C/C1=C/C=C1\CCC[C@]2(C)[C@@H]([C@H](C)/C=C/[C@H](C)C(C)C)CC[C@@H]12` [vitamin D2], the “plasma metabolite after administration” value in data set [3] is given as “one metabolite isolated co-migrated on HPLC with the standard 1α,24-(OH)2D2”.

These data come from patent US6538037B2, “Methods for preparation and use of 1α,24(S)-dihydroxyvitamin D2” (Bone Care International, Inc., priority 1991, dated 2003).
